Reference: US10807992B2, “Single enantiomer antiparasitic compounds” (priority 2017, dated 2020)
Read-outs that look alike come from different tables or passages of the source.

How the values were obtained:
Aedes aegypti = assay: In vitro ingestion activity against adult mosquitoes (artificial feeding, bovine blood); settings: read-out: Mortality % R1 + R2
Protocol: Aedes aegypti (Louisiana Biologicals Inc., New Orleans, La.) eggs were allowed to hatch, close, and age between 3-5 days in an environmental chamber at 26° C., 80% humidity with light/dark cycles.
For mosquito ingestion tests, serial dilutions of the compound stock were performed using DMSO to achieve the desired range for EC50 and EC90 determination. An aliquot of each compound dilution was added to organic bovine blood with a final DMSO concentration of 0.5% and placed in a temperature-controlled artificial feeding container.
(§1) Compounds tested were: the C1 racemate, C1 (R) enantiomer, and the C1 (S) enantiomer. For Trial 3, the C1 (R) enantiomer and the C1 (S) enantiomer were further chiral purified to achieve >99% purity.
For both contact and ingestion assays, five female Aedes aegypti adults were added to each vial or cage. The test vials for contact assays were held in an environmental chamber at 24° C., 80% humidity with light/dark cycles (12 hours each). The cages for mosquito ingestion assays were held in a temperature-controlled artificial feeding apparatus to allow continual access to organic bovine blood containing the desired concentration of compound. Fresh aliquots of compound-spiked bovine blood were provided daily for the duration of the study.
Assessment of mortality/knockdown was performed at various time points between 30 minutes and 24 hours post infestation. Mosquitoes showing no movement or mosquitoes that were knocked down were noted as dead. Results from trial 1 and trial 2 contact assays are shown in Tables 12 and 13, respectively and the results from trial 3 mosquito ingestion assay is shown in table 14.
For the mosquito contact and ingestion assays, each replicate contained 5 mosquitoes. For ease of calculation, the two replicates were added to equal a total of 10 mosquitoes.

Ixodes scapularis = assay: In vitro contact activity against adult ticks (coated vial), I. scapularis; settings: for mortality at 0.006 µM: Trial 1, dose 0.006 μM; for mortality at 0.024 µM: Trial 1, dose 0.024 μM; for mortality at 0.098 µM: Trial 1, dose 0.098 μM; for mortality at 0.39 µM: Trial 1, dose 0.39 μM; for mortality at 1.56 µM: Trial 1, dose 1.56 μM; for mortality at 6.25 µM: Trial 1, dose 6.25 μM; for mortality at 25 µM: Trial 1, dose 25 μM; for mortality at 100 µM: Trial 1, dose 100 μM
Protocol: Rhipicephalus sanguineus, Dermacentor variabilis, Amblyomma americanum, (Ecto Services, Inc., Henderson, N.C.) and Ixodes scapularis (Oklahoma State University, Stillwater, Okla.) aged between 2-4 weeks post molt were held in an environmental chamber at 24° C., 80% humidity with 12-hour light/dark cycles.
For tick assays, vial caps were pre-drilled with a single hole in the center of each cap to allow air exchange. A filter paper (Whatman Grade 540 2.1 cm) was placed in the lid of each vial. An aliquot from each compound stock was added to an acetone/triton solution to achieve the desired top doses for the study. Serial dilutions were conducted from the top dose (i.e. 100 ppm) to achieve the desired titration range for EC50 and EC90 determination. For R. sanguineus, D. variabilis, and A. americanum, the final DMSO concentration in each test vial was 0.5%. For I. scapularis, compounds were solubilized directly in an acetone/triton solution due to I. scapularis' sensitivity to DMSO. A 459 μL aliquot of each compound formulation was transferred to a vial containing a Whatman Grade 540 2.1 cm filter paper. Vials were immediately placed on an unheated roller unit to allow for an even coating of the vial walls. After vials were coated, 41 μL of each compound formulation was added to the filter paper embedded in each vial cap. Each cap was allowed to dry. The vials were loosely capped and allowed to dry for a minimum of four hours in a chemical fume hood.
as §1
Ten adult ticks were added to each vial and held at 24° C., 80% humidity with 12-hour light/dark cycles. Adult ticks were assessed for percent mortality at various time points between 2 hours and 48 hours post infestation. Ticks were stimulated on a heated roller unit and evaluated. Ticks showing no movement, or very slow and uncoordinated movement were noted as dead.

## O=C(CC(F)(F)F)N1CC2(C1)OCc1cc(C3=NSC(c4cc(Cl)c(F)c(Cl)c4)(C(F)(F)F)C3)ccc12 (racemic) [C1 racemate, 1-[6-[5-(3,5-dichloro-4-fluoro-phenyl)-5-(trifluoromethyl)-4H-isothiazol-3-yl]spiro[1H-isobenzofuran-3,3′-azetidine]-1′-yl]-3,3,3-trifluoro-propan-1-one]
Aedes aegypti; 24 h
  mortality at 0.049 ppm: 71.4%
  mortality at 0.2 ppm: 100%
  mortality at 0.78 ppm: 100%
  mortality at 3.125 ppm: 100%
  mortality at 12.5 ppm: 100%
  mortality at 50 ppm: 100%
Aedes aegypti
  mortality at 0.049 ppm: 0%
  mortality at 0.2 ppm: 0%
  mortality at 0.78 ppm: 50%
  mortality at 3.125 ppm: 100%
  mortality at 12.5 ppm: 100%
  mortality at 50 ppm: 100%
Ixodes scapularis; 2 h, Rep1
  mortality at 0.006 µM: 0%
  mortality at 0.024 µM: 0%
  mortality at 0.098 µM: 0%
  mortality at 0.39 µM: 0%
  mortality at 1.56 µM: 0%
  mortality at 6.25 µM: 0%
  mortality at 25 µM: 0%
  mortality at 100 µM: 0%
Ixodes scapularis; 2 h, Rep2
  mortality at 0.006 µM: 0%
  mortality at 0.024 µM: 0%
  mortality at 0.098 µM: 0%
  mortality at 0.39 µM: 0%
  mortality at 1.56 µM: 0%
  mortality at 6.25 µM: 0%
  mortality at 25 µM: 0%
  mortality at 100 µM: 0%
Ixodes scapularis; 6 h, Rep1
  mortality at 0.006 µM: 0%
  mortality at 0.024 µM: 0%
  mortality at 0.098 µM: 0%
  mortality at 0.39 µM: 0%
  mortality at 1.56 µM: 0%
  mortality at 6.25 µM: 0%
  mortality at 25 µM: 10%
  mortality at 100 µM: 100%
Ixodes scapularis; 6 h, Rep2
  mortality at 0.006 µM: 0%
  mortality at 0.024 µM: 0%
  mortality at 0.098 µM: 0%
  mortality at 0.39 µM: 0%
  mortality at 1.56 µM: 0%
  mortality at 6.25 µM: 0%
  mortality at 25 µM: 40%
  mortality at 100 µM: 50%
Ixodes scapularis; 12 h, Rep1
  mortality at 0.006 µM: 0%
  mortality at 0.024 µM: 0%
  mortality at 0.098 µM: 0%
  mortality at 0.39 µM: 0%
  mortality at 1.56 µM: 0%
  mortality at 6.25 µM: 0%
  mortality at 25 µM: 50%
  mortality at 100 µM: 100%
Ixodes scapularis; 12 h, Rep2
  mortality at 0.006 µM: 0%
  mortality at 0.024 µM: 0%
  mortality at 0.098 µM: 0%
  mortality at 0.39 µM: 10%
  mortality at 1.56 µM: 0%
  mortality at 6.25 µM: 70%
  mortality at 25 µM: 70%
  mortality at 100 µM: 100%
Ixodes scapularis; 24 h, Rep1
  mortality at 0.006 µM: 0%
  mortality at 0.024 µM: 0%
  mortality at 0.098 µM: 0%
  mortality at 0.39 µM: 50%
  mortality at 1.56 µM: 10%
  mortality at 6.25 µM: 80%
  mortality at 25 µM: 90%
  mortality at 100 µM: 100%
Ixodes scapularis; 24 h, Rep2
  mortality at 0.006 µM: 0%
  mortality at 0.024 µM: 30%
  mortality at 0.098 µM: 20%
  mortality at 0.39 µM: 50%
  mortality at 1.56 µM: 30%
  mortality at 6.25 µM: 100%
  mortality at 25 µM: 100%
  mortality at 100 µM: 100%
Ixodes scapularis; 48 h, Rep1
  mortality at 0.006 µM: 10%
  mortality at 0.024 µM: 10%
  mortality at 0.098 µM: 0%
  mortality at 0.39 µM: 70%
  mortality at 1.56 µM: 90%
  mortality at 6.25 µM: 100%
  mortality at 25 µM: 100%
  mortality at 100 µM: 100%
Ixodes scapularis; 48 h, Rep2
  mortality at 0.006 µM: 0%
  mortality at 0.024 µM: 30%
  mortality at 0.098 µM: 60%
  mortality at 0.39 µM: 100%
  mortality at 1.56 µM: 80%
  mortality at 6.25 µM: 100%
  mortality at 25 µM: 100%
  mortality at 100 µM: 100%
